The results in this text go back to US8614238B2, “Cyclopentanecarboxamide derivatives, medicaments containing such compounds and their use” (Boehringer Ingelheim International GmbH, priority 2009, dated 2013).

SMILES strings stand for the structures. Bounds are passed on as bounds.

The target in test [1] is T1, Fatty Acid Synthase (FAS) (Homo sapiens, UniProt P49327).
T1 construct: The FAS enzyme is prepared from HeLa cells; endogenous in cells; host or cells: HeLa cells
The test is described as follows: Human FAS Enzyme Assay. The format is biochemical. Conditions: FAS enzyme prepared from HeLa cells; NADPH consumption; read-out: IC50 (potency range). From the text:
Fatty acid synthase is an enzyme complex that harbours seven enzymatic activities catalysing the reductive synthesis of long chain fatty acids from acetyl CoA and malonyl CoA to palmitate. When acetyl CoA and malonyl CoA are forming palmitate NADPH is consumed forming NADP. Since NADPH is fluorescent but not NADP the reaction can be measured by analysing the decrease in fluorescence.
Acetyl coenzyme A (cat.-no. A-2181) and malonyl coenzyme A (cat.-no. M-4263) are purchased from Sigma. NADPH (cat.-no. 30316) is purchased from Serva. The FAS enzyme is prepared from HeLa cells. All other material is of highest grade commercially available.
In the plates, 10 μl test compound in distilled water/DMSO (final concentration 0.1% DMSO) are mixed with 35 μl of a mixture of NADPH and acetyl CoA in phosphate buffer (f.c. 326 μM and 60 μM, respectively), and 45 μl FAS enzyme diluted in enzyme buffer. The plates are incubated for 60 minutes at 37° C. The reaction is then started by the addition of 10 μl malonyl CoA dissolved in water (200 μM). The decrease of the optical density in the wells is determined at 37° C. at a wavelength of 340 nm over 10 minutes. From these kinetic data, the slope (i.e. Vmax) is calculated and used for the calculation.
20 mM KH2PO4/K2HPO4, 1 mM EDTA, 1 mM DTT, 5% glycerol, pH 7.4
Each assay 96 well microtiter plate contains wells with vehicle controls instead of compound (1% DMSO in water) as reference for non-inhibited enzyme activity and wells without malonyl CoA as controls for non-specific NADPH degradation. The analysis of the data is performed by the calculation of the OD decrease in the presence of the test compound compared to the OD decrease of the test control wells after subtraction of the non-specific background without the malonyl CoA substrate (slope(sample)-slope(sample w/o malonyl CoA). An inhibitor of the FAS enzyme will give values between Control values (complete reaction without substance) and complete inhibition. Reported values will include: IC50; Top(Control: nmol NADPH oxidized/min/mg); Bottom (MaxInh: nmol NADPH oxidized/min/mg); RATIO (log(IC50 substance/IC50 control inhibitor)).

For a further test, the system named is N-42 cells. The test is described as follows: 14C-acetate incorporation in N-42 cells. The format is cell-based. Here is the method:
^14C-Acetat Incorporation in N-42 Cells
30000 cells (N-42), in 24 well plates are incubated with the compound dissolved in 500 μL Krebs-Ringer-buffer for 60 min at 37° C., then incubated with 5 μL 1:10 14C-Acetate dilution (1 000 000 dpm) for 4 hours at 37° C. incubation, then washed with 500 μl PBS. 500 μL chloroform/methanol mix 1:1 and 175 μL sodium hydroxide solution was given in each well. The upper fraction is taken away and the lower fraction is vaporized. 50 μL chloroform/methanol mix 1:1 is again given in every well. 10 μL each are taken and given to scintillation vials with 4 mL Ultima Gold. Each vial is measured for 1 minute in a β-Counter.
Cerulenin, a literature known FAS inhibitor is used to validate the assay.

Usually IC50 stands for the concentration needed to halve the response being measured.

T1 sequence (P49327 whole entry): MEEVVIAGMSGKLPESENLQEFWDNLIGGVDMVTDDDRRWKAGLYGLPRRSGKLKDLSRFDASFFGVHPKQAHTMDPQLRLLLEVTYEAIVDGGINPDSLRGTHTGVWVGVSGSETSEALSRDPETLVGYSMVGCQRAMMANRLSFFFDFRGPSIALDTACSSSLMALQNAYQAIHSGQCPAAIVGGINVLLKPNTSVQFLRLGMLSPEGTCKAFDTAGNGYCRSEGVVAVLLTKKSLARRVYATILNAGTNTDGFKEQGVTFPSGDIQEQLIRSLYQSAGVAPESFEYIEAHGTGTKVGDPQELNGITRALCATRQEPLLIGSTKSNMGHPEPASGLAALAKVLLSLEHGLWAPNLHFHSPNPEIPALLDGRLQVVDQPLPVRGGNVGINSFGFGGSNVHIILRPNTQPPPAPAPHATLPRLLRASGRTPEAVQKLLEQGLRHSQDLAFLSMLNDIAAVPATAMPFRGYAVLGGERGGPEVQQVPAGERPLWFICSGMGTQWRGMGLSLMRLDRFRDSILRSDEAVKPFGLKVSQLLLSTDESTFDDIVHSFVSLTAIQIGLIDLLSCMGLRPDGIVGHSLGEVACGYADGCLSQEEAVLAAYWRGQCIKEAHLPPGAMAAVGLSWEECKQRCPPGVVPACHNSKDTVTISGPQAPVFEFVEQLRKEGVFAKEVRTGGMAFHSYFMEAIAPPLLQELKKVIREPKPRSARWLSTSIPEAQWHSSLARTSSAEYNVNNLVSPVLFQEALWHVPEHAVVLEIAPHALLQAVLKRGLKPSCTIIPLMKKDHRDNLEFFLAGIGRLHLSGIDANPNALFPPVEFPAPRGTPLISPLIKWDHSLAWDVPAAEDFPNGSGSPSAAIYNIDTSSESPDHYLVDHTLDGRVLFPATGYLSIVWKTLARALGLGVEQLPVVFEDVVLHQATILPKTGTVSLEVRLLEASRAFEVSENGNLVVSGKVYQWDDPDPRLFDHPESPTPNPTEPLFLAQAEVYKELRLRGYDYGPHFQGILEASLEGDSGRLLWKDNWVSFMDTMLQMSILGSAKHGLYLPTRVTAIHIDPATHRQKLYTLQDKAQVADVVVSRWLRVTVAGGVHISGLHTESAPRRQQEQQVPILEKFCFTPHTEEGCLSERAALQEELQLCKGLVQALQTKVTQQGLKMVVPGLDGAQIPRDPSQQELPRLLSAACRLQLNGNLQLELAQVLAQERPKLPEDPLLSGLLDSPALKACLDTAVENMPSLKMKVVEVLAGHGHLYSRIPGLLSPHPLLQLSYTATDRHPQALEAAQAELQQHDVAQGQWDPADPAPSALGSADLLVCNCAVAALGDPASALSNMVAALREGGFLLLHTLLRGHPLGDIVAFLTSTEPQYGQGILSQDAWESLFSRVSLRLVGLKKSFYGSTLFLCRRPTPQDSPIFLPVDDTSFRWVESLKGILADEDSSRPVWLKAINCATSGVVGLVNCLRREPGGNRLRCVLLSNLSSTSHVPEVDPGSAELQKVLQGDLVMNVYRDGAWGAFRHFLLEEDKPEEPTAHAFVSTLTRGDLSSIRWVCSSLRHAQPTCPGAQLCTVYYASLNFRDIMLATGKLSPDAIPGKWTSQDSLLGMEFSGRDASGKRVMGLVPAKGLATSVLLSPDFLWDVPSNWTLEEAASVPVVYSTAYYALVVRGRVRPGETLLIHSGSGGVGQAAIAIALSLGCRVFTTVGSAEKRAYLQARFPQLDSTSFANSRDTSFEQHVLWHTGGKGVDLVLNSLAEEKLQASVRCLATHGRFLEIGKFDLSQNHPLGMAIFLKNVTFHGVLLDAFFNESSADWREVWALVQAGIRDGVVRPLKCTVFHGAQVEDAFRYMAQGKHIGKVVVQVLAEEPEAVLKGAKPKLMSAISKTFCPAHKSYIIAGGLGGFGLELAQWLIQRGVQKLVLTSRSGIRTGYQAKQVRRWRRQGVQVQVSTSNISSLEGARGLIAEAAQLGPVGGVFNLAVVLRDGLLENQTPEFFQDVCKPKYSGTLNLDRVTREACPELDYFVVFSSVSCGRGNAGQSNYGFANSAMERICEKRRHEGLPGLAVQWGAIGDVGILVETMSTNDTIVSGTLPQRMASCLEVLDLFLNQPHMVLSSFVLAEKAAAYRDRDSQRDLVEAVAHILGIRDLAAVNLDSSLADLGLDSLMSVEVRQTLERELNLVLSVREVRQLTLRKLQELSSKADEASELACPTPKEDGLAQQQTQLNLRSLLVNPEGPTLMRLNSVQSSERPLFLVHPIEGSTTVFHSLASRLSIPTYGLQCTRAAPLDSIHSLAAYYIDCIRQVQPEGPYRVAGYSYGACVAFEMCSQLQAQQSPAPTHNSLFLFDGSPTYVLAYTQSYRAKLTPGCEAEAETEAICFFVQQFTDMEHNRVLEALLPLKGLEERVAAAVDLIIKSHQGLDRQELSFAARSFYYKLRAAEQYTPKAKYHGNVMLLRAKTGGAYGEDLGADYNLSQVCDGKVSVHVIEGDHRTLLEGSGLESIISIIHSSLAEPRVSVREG

In the case of `CCNC(=O)N[C@H]1CC[C@@H](C(=O)N(C)c2ccc(-c3ccccc3)cc2)C1` [Example 3.4, (1R,3S)-3-(3-Ethyl-ureido)-cyclopentanecarboxylic acid N-biphenyl-4-yl-N-methyl-amide], in test [1], the IC50 lay in the range of 500 to 3000 nM.
Regarding `CCC(=O)N[C@H]1CC[C@@H](C(=O)N(C)c2ccc(-c3nc4ccccc4[nH]3)cc2)C1` [Example 2.1, (1R,3S)-3-Propionylamino-cyclopentanecarboxylic acid N-[4′-(1H-benzoimidazol-2-yl)-phenyl]-N-methyl-amide], the IC50 in test [1] is not above 500 nM. The “% control 14C acetate incorporation” value in the test with N-42 cells (compound at 10 μM) came out at 80.8 % control.
Consider `COCC(=O)N[C@H]1CC[C@@H](C(=O)N(C)c2ccc(-c3nc4ccccc4o3)cc2)C1` [Example 1.5, (1R,3S)-3-(2-Methoxy-acetylamino)-cyclopentanecarboxylic acid N-(4-benzooxazol-2-yl-phenyl)-N-methyl-amide], for which the IC50 in test [1] was 500 to 3000 nM.
For `CCNC(=O)N[C@H]1CC[C@@H](C(=O)N(C)c2ccc(-c3nc4ccccc4o3)cc2)C1` [Example 1.1, (1R,3S)-3-(3-Ethyl-ureido)-cyclopentanecarboxylic acid N-(4-benzooxazol-2-yl-phenyl)-N-methyl-amide], in test [1], the IC50 lay in the range of 500 to 3000 nM.
Still for that read-out and setting: the same measure for `CCNC(=O)N[C@H]1CC[C@@H](C(=O)N(C)c2ccc(-c3nc4ccccc4n3C)cc2)C1` [Example 4.1, (1R,3S)-3-(3-Ethyl-ureido)-cyclopentanecarboxylic acid N-methyl-N-[4-(1-methyl-1H-benzoimidazol-2-yl)-phenyl]-amide]: 500 to 3000 nM; for `CN(C)CCCCCC(=O)N[C@H]1CC[C@@H](C(=O)N(C)c2ccc(-c3nc4ccccc4n3C)cc2)C1` [Example 4.2, (1R,3S)-3-(6-Dimethylamino-hexanoylamino)-cyclopentanecarboxylic acid N-methyl-N-[4-(1-methyl-1H-benzoimidazol-2-yl)-phenyl]-amide]: 500 to 3000 nM; for `CN(C(=O)[C@@H]1CC[C@H](NC(=O)C(F)F)C1)c1ccc(-c2nc3ccccc3o2)cc1` [Example 1.8, (1R,3S)-3-(2,2-Difluoro-acetylamino)-cyclopentanecarboxylic acid N-(4-benzooxazol-2-yl-phenyl)-N-methyl-amide]: not above 500 nM.
`C/C=C/C/C=C/CCC(=O)[C@H]1O[C@H]1C(N)=O` [Cerulenin, reference compound]: the “% control 14C acetate incorporation” value in the test on N-42 cells (compound at 100 μM) stood at 73.3 % control.
On to `CC(C)C(=O)N[C@H]1CC[C@@H](C(=O)N(C)c2ccc(-c3nc4ccccc4[nH]3)cc2)C1` [Example 2.3, (1R,3S)-3-Isobutyrylamino-cyclopentanecarboxylic acid N-[4′-(1H-benzoimidazol-2-yl)-phenyl]-N-methyl-amide], for which the IC50 in test [1] was in the range of 500 to 3000 nM.
Same read-out and setting: the same measure for `CN(C)CCCCCC(=O)N[C@H]1CC[C@@H](C(=O)N(C)c2ccc(-c3nc4ccccc4[nH]3)cc2)C1` [Example 2.5, (1R,3S)-3-(6-Dimethylamino-hexanoylamino)-cyclopentanecarboxylic acid N-[4′-(1H-benzoimidazol-2 yl)-phenyl]-N-methyl-amide]: 500 to 3000 nM; for `CN(C)C(=O)N[C@H]1CC[C@@H](C(=O)N(C)c2ccc(-c3nc4ccccc4o3)cc2)C1` [Example 1.7, (1R,3S)-3-(3,3-Dimethyl-ureideo)-cyclopentanecarboxylic acid N-(4-benzooxazol-2-yl-phenyl)-N-methyl-amide]: not above 500 nM.
Same read-out and setting: under `CC(=O)N[C@H]1CC[C@@H](C(=O)N(C)c2ccc(-c3ccccc3)cc2)C1` [Example 3.3, (1R,3S)-3-Acetylamino-cyclopentanecarboxylic acid N-biphenyl-4-yl-N-methyl-amide] stands not above 500 nM; under `CCNC(=O)N[C@H]1CC[C@@H](C(=O)N(C)c2ccc(-c3nc4ccccc4[nH]3)cc2)C1` [Example 2.4, (1R,3S)-3-(3-Ethyl-ureido)-cyclopentanecarboxylic acid N-[4′-(1H-benzoimidazol-2-yl)-phenyl]-N-methyl-amide], not above 500 nM.
`CCC(=O)N[C@H]1CC[C@@H](C(=O)N(C)c2ccc(-c3nc4ccccc4n3C)cc2)C1` [Example 5.1, (1R,3S)-3-Propionylamino-cyclopentanecarboxylic acid N-methyl-N-[4-(1-methyl-1H-benzoimidazol-2-yl)-phenyl]-amide]: the IC50 in test [1] was not above 500 nM. Further, the “% control 14C acetate incorporation” value with N-42 cells (compound at 10 μM) came to 85.7 % control.
Consider `CCCC(=O)N[C@H]1CC[C@@H](C(=O)N(C)c2ccc(-c3nc4ccccc4o3)cc2)C1` [Example 1.6, (1R,3S)-3-Butyrylamino-cyclopentanecarboxylic acid N-(4-benzooxazol-2-yl-phenyl)-N-methyl-amide], for which the IC50 in test [1] was not above 500 nM. The “% control 14C acetate incorporation” value in the test with N-42 cells (compound at 10 μM) worked out at 81.0 % control.
For `CC(=O)N[C@H]1CC[C@@H](C(=O)N(C)c2ccc(-c3nc4ccccc4o3)cc2)C1` [Example 1.3, (1R,3S)-3-Acetylamino-cyclopentanecarboxylic acid N-(4-benzooxazol-2-yl-phenyl)-N-methyl-amide], in that order: not above 500 nM and 81.7 % control.
For the molecule `CN(C)CCCCCC(=O)N[C@H]1CC[C@@H](C(=O)N(C)c2ccc(-c3nc4ccccc4o3)cc2)C1` [Example 1.4, (1R,3S)-3-(6-Dimethylamino-hexanoylamino)-cyclopentanecarboxylic acid N-(4-benzooxazol-2-yl-phenyl)-N-methyl-amide], the IC50 in test [1] lay within 500 to 3000 nM.
Still for that read-out and setting: under `CCC(=O)N[C@H]1CC[C@@H](C(=O)N(C)c2ccc(-c3cn4ccccc4n3)cc2)C1` [Example 5.2, (1R,3S)-3-Propionylamino-cyclopentanecarboxylic acid N-[4-(imidazo[1,2-a]pyridin-2-yl)-phenyl]-N-methyl-amide] stands 500 to 3000 nM.
In the case of `CCC(=O)N[C@H]1CC[C@@H](C(=O)N(C)c2ccc(-c3ccccc3)cc2)C1` [Example 3.1, (1R,3S)-3-Propionylamino-cyclopentanecarboxylic acid N-biphenyl-4-yl-N-methyl-amide], in test [1], the IC50 is not above 500 nM. The “% control 14C acetate incorporation” value in the test with N-42 cells (compound at 10 μM) was 76.8 % control.
As to `CN(C)CCCCCC(=O)N[C@H]1CC[C@@H](C(=O)N(C)c2ccc(-c3ccccc3)cc2)C1` [Example 3.5, (1R,3S)-3-(6-Dimethylamino-hexanoylamino)-cyclopentanecarboxylic acid N-biphenyl-4-yl-N-methyl-amide], the IC50 in test [1] lay within 500 to 3000 nM.
The same measure, in the same setting: the same measure for `CC(C)C(=O)N[C@H]1CC[C@@H](C(=O)N(C)c2ccc(-c3ccccc3)cc2)C1` [Example 3.2, (1R,3S)-3-Isobutyrylamino-cyclopentanecarboxylic acid N-biphenyl-4-yl-N-methyl-amide]: not above 500 nM; for `CC(=O)N[C@H]1CC[C@@H](C(=O)N(C)c2ccc(-c3nc4ccccc4[nH]3)cc2)C1` [Example 2.2, (1R,3S)-3-Acetylamino-cyclopentanecarboxylic acid N-[4′-(1H-benzoimidazol-2-yl)-phenyl]-N-methyl-amide]: 500 to 3000 nM.
